Laboratory results published in US12331029B2, “Orexin 1 receptor antagonists” (NXERA PHARMA UK LIMITED, priority 2018, dated 2025).

What was measured:
Human OX1 receptor [1] = target: T1, Human OX1 receptor (Homo sapiens, UniProt O43613); assay: IPone accumulation assay, CHO cells expressing human OX1 receptor; format: cell-based; details: antagonism of orexin A (EC80) induced inositol phosphate turnover, read-out: fpKb average OX1 (converted)
T1 sequence (O43613 1-425): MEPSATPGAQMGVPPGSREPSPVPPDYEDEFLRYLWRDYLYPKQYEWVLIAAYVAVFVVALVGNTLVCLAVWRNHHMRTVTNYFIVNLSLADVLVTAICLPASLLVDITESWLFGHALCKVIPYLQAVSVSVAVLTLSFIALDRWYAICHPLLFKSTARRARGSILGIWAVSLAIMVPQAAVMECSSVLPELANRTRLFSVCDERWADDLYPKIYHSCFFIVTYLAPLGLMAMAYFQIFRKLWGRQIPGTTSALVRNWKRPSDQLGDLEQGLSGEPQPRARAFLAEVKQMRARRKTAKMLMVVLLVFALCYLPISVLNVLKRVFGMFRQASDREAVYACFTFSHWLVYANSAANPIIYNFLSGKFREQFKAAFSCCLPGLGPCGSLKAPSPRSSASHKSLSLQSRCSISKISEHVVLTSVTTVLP
Method: (§1) Stable cell lines for the human OX1R and OX2R receptors were generated through the transfection of CHO cells using the transfection reagent Genejuice (Novagen number 70967) and cDNA coding for either the human OX1R or OX2R. Cells were cultured in Sigma Nutrient Mixture F-12 Ham media (catalog number N6658) supplemented with 10% heat-inactivated FBS. Forty-eight hours after transfection, cells were harvested and placed under geneticin selection by culturing in Sigma Nutrient Mixture F-12 Ham media supplemented with 10% heat-inactivated FBS and geneticin (ThermoFisher Catalog number: 10131035). Selection of the final stable clone for each receptor was made on the basis of receptor expression, assay signal to noise and robustness though increasing passage. Selected clones for the human OX1R and OX2R were then frozen down into liquid nitrogen using Cell Freezing Medium-DMSO (Sigma-Aldrich catalog number: C6164).
(§2) IPone accumulation assay. A CHO cell line stably expressing either human OX1 or OX2 receptor was used with the IPone HTRF assay kit (CisBio: Part #62IPAPEJ) to measure receptor activation. The assay was optimised to measure the ability (potency; fpKb) of antagonists to reduce agonist (orexin A)-induced inositol phosphate turnover. Briefly, cells were plated onto half area 96-well white walled plates at a density of 12,500 cells/well. Sixteen hours post-plating cell growth media was replaced with antagonist concentration-response curve diluted in stimulation buffer (supplied with the kit). Cells were incubated in a humidified incubator (37° C.) for 30 min before an EC80 challenge concentration (˜20 nM (OX1) and 40 nM (OX2)) of orexin A (Tocris catalogue number 1455). After 30 min stimulation in a humidified incubator (37° C.) the assay was terminated by the addition of detection mixture as per manufacturer's instructions. The concentration of compound which reduced orexin-A stimulated turnover of inositol phosphates by 50% (IC50) was calculated by fitting to a four parameter sigmoidal dose response curve. The IC50 values were converted to fpKB values using the orexin A pEC50 value estimated on each plate as well as the challenge concentration interpolated from the orexin A control curve.

Human OX2 receptor [2] = target: T2, Human OX2 receptor (Homo sapiens, UniProt O43614); assay: IPone accumulation assay, CHO cells expressing human OX2 receptor; format: cell-based; details: antagonism of orexin A (EC80) induced inositol phosphate turnover, read-out: fpKb average OX2
T2 sequence (O43614 1-444): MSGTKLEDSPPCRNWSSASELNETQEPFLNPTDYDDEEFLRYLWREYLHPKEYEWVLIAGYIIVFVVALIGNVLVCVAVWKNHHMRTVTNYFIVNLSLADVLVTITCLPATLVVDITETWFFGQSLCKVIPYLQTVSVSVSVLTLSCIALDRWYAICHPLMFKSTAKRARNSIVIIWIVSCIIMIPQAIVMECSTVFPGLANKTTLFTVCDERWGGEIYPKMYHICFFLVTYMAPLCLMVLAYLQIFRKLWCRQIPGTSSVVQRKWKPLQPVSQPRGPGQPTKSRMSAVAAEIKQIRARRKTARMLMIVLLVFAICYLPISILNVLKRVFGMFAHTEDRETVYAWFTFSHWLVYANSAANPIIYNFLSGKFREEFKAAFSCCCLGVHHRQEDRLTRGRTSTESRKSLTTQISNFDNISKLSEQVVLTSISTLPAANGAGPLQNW
Method: as §1
as §2, with “Cells were incubated in a humidified incubator (37° C.) for 30 min before an EC80 challenge concentration (˜20 nM (OX1) and 40 nM (OX2)) of orexin A (Tocris catalogue number 1455).” left out

Human OX1 receptor [3] = target: T1, Human OX1 receptor; assay: [3H]-radioligand binding assay, human OX1 receptor membranes
Method: (§3) Human OX1 or OX2 receptor were cloned into Invitrogen's (ThermoFisher Scientific, UK) Bac-to-Bac Baculovirus Expression System. P0 baculovirus was generated by transfecting SF9 cells with bacmid DNA using Cellfectin® II transfection reagent (ThermoFisher Scientific, UK, Catalog number 10362-100). Following P0 generation P1 virus was then generated ready for large scale infection and membrane preparation. SF21 cells were grown in expression medium ESF921 (Expression Systems, USA, catalog number 96-001-01) supplemented with 10% heat-inactivated FBS and 1% Pen/Strep and were infected at a cell density of 2.5×10^6 cells/mL and a multiplicity of infection of 1.0 for both human OX1R and OX2R. Incubation was carried out at over 48 h in a shaking incubator set at 27° C. The cell culture was then centrifuged at 2,500 rcf for 10 min at 4° C. The pellets were resuspended in cold PBS supplemented with Roche's Complete EDTA-free protease inhibitor cocktail tablets (Roche Applied Sciences, catalog number 05056489001), 1 mM PMSF and 1 mM EDTA. The resuspended cell paste was then centrifuged at 3,273 rcf for 12 min at 4° C. The supernatant was discarded and the pellet frozen at −80° C. The cell pellet from a 4 L culture was resuspended in buffer containing 50 mM HEPES pH 7.5, 150 mM NaCl, 8 Roche EDTA-Free protease inhibitor cocktail tablets and 1 mM PMSF. The suspension was left stirring at rt for 1 h and then homogenised for 90 s at 9,500 rpm using a VDI 25 (VWR, USA) homogeniser. The cells were then lysed using a Microfluidiser processor M-110L Pneumatic (Microfluidics, USA) at 60 PSI and membranes collected by ultracentrifugation at 204.7 k×g for 1 h. The supernatant was discarded and the pellet was resuspended and homogenised in 90 s at 9,500 rpm in 50 mL (25 mL for each 2 L culture) of buffer containing 50 mM Hepes pH 7.5, 150 mM NaCl, 3 Roche EDTA-free protease inhibitor cocktail tablets and 1 mM PMSF. The resulting membranes were then stored at −80° C.
(§4) [^3H]-radioligand binding assay. After thawing, membrane homogenates were re-suspended in the binding buffer (8.5 mM HEPES, pH 7.4, 1.3 mM CaCl2, 1.2 mM MgSO4, 118 mM NaCl, 4.7 mM KCl, 4 mM NaHCO3, 1.2 mM KH2PO4, 11 mM glucose) to a final assay concentration of 6.4 μg (OX1) or 1.4 μg (OX2) protein per well. Saturation isotherms were determined by the addition of various concentrations (0-30 nM) of [^3H]-4-(2,6-difluoro-4-methoxybenzyl)-2-(5,6-dimethoxypyridin-3-yl)-2H-1,2,4-benzothiadiazin-3(4H)-one 1,1-dioxide (Christopher et al, MedChemComm., 2015, 6, 947-955) in a total reaction volume of 250 μL for 90 min at rt. At the end of the incubation, membranes were filtered onto a 96-well GF/B filter pre-incubated with 0.5% polyethylenimine, with a Tomtec cell harvester and washed 5 times with 0.5 mL distilled water. Non-specific binding (NSB) was measured in the presence of 3.33 μM [4-(5-chloro-1,3-benzoxazol-2-yl)-7-methyl-1,4-diazepan-1-yl][5-methyl-2-(2H-1,2,3-triazol-2-yl)phenyl]methanone (Wertz et al, Angew. Chem. Int. Ed., 2011, 50, 11511-11515). Radioactivity on the filter was counted (1 min) on a Microbeta radiometric plate counter (Perkin Elmer) after addition of 50 μL of scintillation fluid (LabLogic: Part #SG-BXX-14). […] IC50 values were derived from the inhibition curve and the equilibrium dissociation constant (Ki) values were calculated using the Cheng-Prusoff equation.

Human OX2 receptor [4] = target: T2, Human OX2 receptor; assay: [3H]-radioligand binding assay, human OX2 receptor membranes
Method: as §3, §4

| SMILES | Kb (Human OX1 receptor [1]) | Kb (Human OX2 receptor [2]) | Ki (Human OX1 receptor [3]) | Ki (Human OX2 receptor [4]) | Kd (Human OX1 receptor [3]; read-out: KD value of the radioligand, OX1, saturation isotherms) | Kd (Human OX2 receptor [4]; read-out: KD value of the radioligand, OX2, saturation isotherms) |
| --- | --- | --- | --- | --- | --- | --- |
| Cc1ccc(-c2ncccn2)c(C(=O)N[C@H]2CCC[C@@H]2COc2ccc(F)cc2)c1 [Example 2, N-[(1S,2S)-2-[(4-fluorophenoxy)methyl]cyclopentyl]-5-methyl-2-pyrimidin-2-yl-benzamide] | 63.1 nM | > 1260 nM | 5.01 nM | > 5010 nM |  |  |
| COc1cccc(-c2ccncn2)c1C(=O)N[C@H]1CCC[C@@H]1COc1ccc(F)cc1 [Example 12, N-[(1S,2S)-2-[(4-fluorophenoxy)methyl]cyclopentyl]-2-methoxy-6-pyrimidin-4-yl-benzamide] | 12.6 nM | > 631 nM | 3.16 nM | 1000 nM |  |  |
| Cc1ccc(-c2ncccn2)c(C(=O)N[C@H]2CCC[C@@H]2COc2ccc(F)cc2)n1 [Example 24, N-[(1S,2S)-2-[(4-fluorophenoxy)methyl]cyclopentyl]-6-methyl-3-pyrimidin-2-yl-pyridine-2-carboxamide] | 15.8 nM | > 631 nM | 15.8 nM | > 3980 nM |  |  |
| O=C(N[C@H]1CCC[C@@H]1COc1ccc(Cl)cc1)c1ncccc1-c1ncccn1 [Example 27, N-[(1S,2S)-2-[(4-chlorophenoxy)methyl]cyclopentyl]-3-pyrimidin-2-yl-pyridine-2-carboxamide] | 316 nM | > 2510 nM | 20 nM | > 5010 nM |  |  |
| COc1cccc(-c2ncc(F)cn2)c1C(=O)N[C@H]1CCC[C@@H]1COc1ccc(F)cc1 [Example 13, N-[(1S,2S)-2-[(4-fluorophenoxy)methyl]cyclopentyl]-2-(5-fluoropyrimidin-2-yl)-6-methoxy-benzamide] | 31.6 nM | > 631 nM | 12.6 nM | 1580 nM |  |  |
| O=C(N[C@H]1CCC[C@@H]1COc1ccc(F)cc1)c1c(F)cccc1-c1ncccn1 [Example 10, 2-fluoro-N-[(1S,2S)-2-[(4-fluorophenoxy)methyl]cyclopentyl]-6-pyrimidin-2-yl-benzamide] | 20 nM | > 631 nM | 6.31 nM | 1580 nM |  |  |
| COc1cccc(-n2nccn2)c1C(=O)N[C@H]1CCC[C@@H]1COc1ccc(F)cn1 [Example 31, N-[(1S,2S)-2-[(5-fluoro-2-pyridyl)oxymethyl]cyclopentyl]-2-methoxy-6-(triazol-2-yl)benzamide] | 10 nM |  | 6.31 nM |  |  |  |
| COc1cccc(-c2ncccn2)c1C(=O)N[C@H]1CCC[C@@H]1COc1ccc(F)cc1 [Example 9, N-[(1S,2S)-2-[(4-fluorophenoxy)methyl]cyclopentyl]-2-methoxy-6-pyrimidin-2-yl-benzamide] | 10 nM |  | 3.98 nM |  |  |  |
| [2H]C([2H])([2H])Oc1cccc(-n2nccn2)c1C(=O)N[C@H]1CCC[C@@H]1COc1ccc(F)cn1 [Example 33, N-[(1S,2S)-2-[(5-fluoro-2-pyridyl)oxymethyl]cyclopentyl]-2-(triazol-2-yl)-6-(trideuteriomethoxy)benzamide] | 15.8 nM |  | 3.98 nM |  |  |  |
| COc1cccc(-c2cnccn2)c1C(=O)N[C@H]1CCC[C@@H]1COc1ccc(F)cc1 [Example 11, N-[(1S,2S)-2-[(4-fluorophenoxy)methyl]cyclopentyl]-2-methoxy-6-pyrazin-2-yl-benzamide] | 20 nM | > 631 nM | 7.94 nM |  |  |  |
| COc1cc(F)c(CN2C(=O)N(c3cnc(OC)c(OC)c3)S(=O)(=O)c3ccccc32)c(F)c1 [[^3H]-4-(2,6-difluoro-4-methoxybenzyl)-2-(5,6-dimethoxypyridin-3-yl)-2H-1,2,4-benzothiadiazin-3(4H)-one 1,1-dioxide, reference compound] |  |  |  |  | 1.5 nM | 0.75 nM |

Second part, the molecule after the results:

| Kb (Human OX1 receptor [1]) | Kb (Human OX2 receptor [2]) | Ki (Human OX1 receptor [3]) | Ki (Human OX2 receptor [4]) | Kd (Human OX1 receptor [3]; read-out: KD value of the radioligand, OX1, saturation isotherms) | Kd (Human OX2 receptor [4]; read-out: KD value of the radioligand, OX2, saturation isotherms) | SMILES |
| --- | --- | --- | --- | --- | --- | --- |
| 251 nM | > 631 nM | 31.6 nM | > 1260 nM |  |  | COCc1cccc(-n2nccn2)c1C(=O)N[C@H]1CCC[C@@H]1COc1ccc(F)cc1 [Example 17, N-[(1S,2S)-2-[(4-fluorophenoxy)methyl]cyclopentyl]-2-(methoxymethyl)-6-(triazol-2-yl)benzamide] |
| 63.1 nM | > 2000 nM | 3.98 nM | > 3160 nM |  |  | O=C(N[C@H]1CCC[C@@H]1COc1ccc(F)cc1)c1c(F)cccc1-n1nccn1 [Example 4, 2-fluoro-N-[(1S,2S)-2-[(4-fluorophenoxy)methyl]cyclopentyl]-6-(triazol-2-yl)benzamide] |
| 1 nM | > 501 nM | 1.26 nM | 126 nM |  |  | [2H]C([2H])([2H])Oc1cccc(-n2nccn2)c1C(=O)N[C@H]1CCC[C@@H]1COc1ccc(F)cc1 [Example 14, N-[(1S,2S)-2-[(4-fluorophenoxy)methyl]cyclopentyl]-2-(triazol-2-yl)-6-(trideuteriomethoxy)benzamide] |
| 79.4 nM | > 398 nM | 6.31 nM | 631 nM |  |  | O=C(N[C@H]1CCC[C@@H]1COc1ccc(F)cc1)c1c(OC(F)F)cccc1-n1nccn1 [Example 8, 2-(difluoromethoxy)-N-[(1S,2S)-2-[(4-fluorophenoxy)methyl]cyclopentyl]-6-(triazol-2-yl)benzamide] |
| 63.1 nM | > 1260 nM | 7.94 nM | > 5010 nM |  |  | COCc1ccc(-n2nccn2)c(C(=O)N[C@H]2CCC[C@@H]2COc2ccc(F)cc2)n1 [Example 18, N-[(1S,2S)-2-[(4-fluorophenoxy)methyl]cyclopentyl]-6-(methoxymethyl)-3-(triazol-2-yl)pyridine-2-carboxamide] |
| 79.4 nM | > 1260 nM | 7.94 nM | > 5010 nM |  |  | COCc1ccc(-n2nccn2)c(C(=O)N[C@H]2CCC[C@@H]2COc2ccc(Cl)cc2)n1 [Example 19, N-[(1S,2S)-2-[(4-chlorophenoxy)methyl]cyclopentyl]-6-(methoxymethyl)-3-(triazol-2-yl)pyridine-2-carboxamide] |
|  |  | 15.8 nM | > 1260 nM |  |  | Cc1ccc(-n2nccn2)c(C(=O)N[C@H]2CCC[C@@H]2COc2ccc(F)cc2)c1 [Example 3, N-[(1S,2S)-2-[(4-fluorophenoxy)methyl]cyclopentyl]-5-methyl-2-(triazol-2-yl)benzamide] |
| 794 nM | > 631 nM | 12.6 nM | > 5010 nM |  |  | COc1ccc(-n2nccn2)c(C(=O)N[C@H]2CCC[C@@H]2COc2ccc(Cl)cc2)n1 [Example 21, N-[(1S,2S)-2-[(4-chlorophenoxy)methyl]cyclopentyl]-6-methoxy-3-(triazol-2-yl)pyridine-2-carboxamide] |
